Series [1] in a line: In vivo retention: plasma half-life in baboons by LC-MS/MS. More on the design: species or system baboon (P. Anubis). To be noted: for half-life: baboon (P. Anubis). The procedure: A 96-well plate HLB Oasis 10 mg (Waters, Milford, Mass.) was employed for extraction. The SPE material was conditioned by addition of 500 μl of methanol followed by addition of 500 μL of milli-Q water. Sample was prepared by addition of the internal standard followed by 1:1 dilution with 4% H3PO4. After loading the sample, washing was carried out with 500 μL of 5% methanol in 0.1% formic acid. Sample was eluted with 150 μL of 65% methanol in 0.1% formic acid and collected in the collection plate. Solvent was evaporated to dryness in a speed-vac concentrator and reconstituted in 5% acetonitrile in 0.1% formic acid. Samples were kept at −20° C. until analysis.
Baboon plasma samples, 40 μL, were mixed with internal standard and dissolved 1:1 with 40 mM ammonium carbonate buffer. Rapigest detergent was added to a final concentration of 0.1%. Disulfide bridges were reduced in 5 mM DTT for 30 min at 60° C. Alkylation of cysteines was done by addition of iodoacetamide to a final concentration of 15 mM and incubation for 30 min in dark. The sample was enzymatically digested by addition of 16 μL of a 1 μG/μL trypsin solution and incubation overnight at 37° C. After that, the sample pH was lowered with 5% TFA to induce detergent degradation. To avoid nonspecific adsorption of very hydrophobic peptides, acetonitrile was added to 20%. The samples were centrifuged at 6° C. and 14000 rpm for 30 min and the supernatant was diluted with 0.1% formic acid to reduce acetonitrile concentration to 10% prior to filtration with a 10 kDa cut-off microcon centrifugal filter (Millipore, Billerica, Mass.). The filter was washed with 50 μL of 10% ACN in 0.1% formic acid and the collected sample was evaporated to dryness and reconstituted with 10% ACN in 0.1% formic acid.
LC-MS/MS analysis was performed on a SYNAPT HDMS (Waters, Milford, Mass.) controlled by MassLynx 4.1 software (Waters) and equipped with a nanoESI source. Each sample was injected in triplicate. A nanoACQUITY UPLC (Waters) system was used for peptide separation by reversed-phase liquid chromatography. After injection, analytes were trapped for 3 min with 3% mobile phase A (0.1% formic acid in water) at 5 μl/min on a 5 μm Symmetry C18 column (180 μm×20 mm, Waters) and further separated on a 1.7 μm BEH130 C18 column (75 μm×150 mm, Waters). The analytical column temperature was held at 35° C. Peptides were separated at flow rate 0.3 μl/min. The gradient was linear 3-40% B (0.1% formic acid in acetonitrile), either 50 min long, or 60 min for the digested samples. The capillary voltage was 3.2 kV, the cone voltage was 35 V and the source temperature was 100° C. [Glu1]-fibrinogen peptide was used for lock-mass correction with a sampling rate of 30 s. Mass spectra were acquired in positive mode over an m/z range 400-2000 Da at scan rate 0.6 s. The time window used for the MS/MS function was ±3 min of the retention time of the selected peptide. The presence of the analyte was confirmed by MS/MS. Selectivity was studied by analysis of blank samples to determine the presence of any interference coeluting with the analyte.
Juvenile baboons (P. Anubis, Baboon Research Resources, University of Oklahoma) weighing 5-8 kg were used. Three baboons were used for the study; one for each compound. All animals received a bolus dose of peptides (10 mg) by injection through the peripheral vein. […]

Another series has as its target T1, C3b (Homo sapiens, UniProt P01024).
T1 construct: biotin (chemical biotinylation of C3b)
Kind of series: SPR analysis of binding kinetics to immobilized C3b. Particulars: SPR, Table 2-1. The procedure: (§1) The kinetics of the interaction between C3b and each compstatin analog was analyzed by SPR on a Biacore 3000 instrument (GE Healthcare Corp., Piscataway, N.J.) at 25° C. using PBS-T (10 mM sodium phosphate, 150 mM NaCl, 0.005% Tween-20, pH 7.4) as the running buffer, as described above. In brief, biotinylated C3b (30 μg/mL) was immobilized on a streptavidin-coated sensor chip, and a two-fold serial dilution series (1 μM-500 pM) of each analog was injected for 2 min at 30 μl/min, with a dissociation phase of 5-10 min. Peptide [Trp(Me)^4]-Ac-compstatin was included in each experimental series as an internal control and reference. Data analysis was performed using Scrubber (BioLogic Software, Campbell, Australia). The signals from an untreated flow cell and an ensemble of buffer blank injections were subtracted to correct for buffer effects and injection artifacts. Processed biosensor data were globally fitted to a 1:1 Langmuir binding model, and the equilibrium dissociation constant (KD) was calculated from the equation KD=kd/ka. Peptide solutions were injected in duplicate in every experiment, and each screening assay was performed at least twice.
as §1, with “in Example 1.” for “above.”, “μg/ml)” for “μg/mL)”, “Peptide [Trp(Me)^4]-Ac-compstatin was included in each experimental series as an internal control and reference.” left out

For series [2], the system named is classical pathway of complement. Particulars: data from Sahu et al., 1996; cited from earlier work.
Series [3] shares this test system. Kind of series: Inhibition of classical pathway complement activation, ELISA in human serum. In kind it is biochemical. To be noted: relative to peptide 1; NA: not active. On the procedure:
The ability of the compstatin analogs to inhibit the activation of the classical pathway of complement was assessed by ELISA (Mallik et al., 2005, J Med Chem 48:274-86). In brief, complement was activated in human serum using an antigen-antibody complex in the presence or absence of compstatin analogs, and the deposition of C3 fragments on the plate surface was detected using an HRP-conjugated polyclonal anti-C3 antibody. […] The percent inhibition was plotted against the peptide concentration, and the resulting data set was fitted to the logistic dose-response function using Origin 7.0 software. IC50 values were obtained from the fitted parameters that produced the lowest χ^2 value. Each analog was assayed at least three to seven times.
The ability of the compstatin analogs to inhibit the activation of the classical pathway of complement was assessed by ELISA as described in Example 1. Each conjugate was assayed at least three times.
(ELISA stands for enzyme-linked immunosorbent assay.)

Like-named read-outs stand apart in the source and are kept apart here.

T1 sequence (P01024 23-667 limits assumed): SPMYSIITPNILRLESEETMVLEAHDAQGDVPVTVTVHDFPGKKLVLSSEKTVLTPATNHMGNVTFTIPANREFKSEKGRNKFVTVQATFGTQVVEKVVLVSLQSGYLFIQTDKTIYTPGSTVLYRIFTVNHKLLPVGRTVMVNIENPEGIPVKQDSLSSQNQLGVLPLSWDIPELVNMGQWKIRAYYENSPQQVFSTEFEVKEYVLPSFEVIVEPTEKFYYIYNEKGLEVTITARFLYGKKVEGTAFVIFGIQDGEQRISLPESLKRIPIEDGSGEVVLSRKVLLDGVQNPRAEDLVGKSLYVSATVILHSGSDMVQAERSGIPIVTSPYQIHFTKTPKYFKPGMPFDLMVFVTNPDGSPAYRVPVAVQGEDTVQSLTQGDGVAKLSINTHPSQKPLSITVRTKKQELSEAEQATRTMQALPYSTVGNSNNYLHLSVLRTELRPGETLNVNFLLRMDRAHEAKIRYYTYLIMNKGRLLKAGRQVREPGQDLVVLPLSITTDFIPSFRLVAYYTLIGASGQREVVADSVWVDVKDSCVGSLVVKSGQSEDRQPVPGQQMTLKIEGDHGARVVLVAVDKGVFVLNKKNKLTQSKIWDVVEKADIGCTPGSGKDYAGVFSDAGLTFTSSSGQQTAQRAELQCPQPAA
T1 sequence (P01024 749-1663 limits assumed): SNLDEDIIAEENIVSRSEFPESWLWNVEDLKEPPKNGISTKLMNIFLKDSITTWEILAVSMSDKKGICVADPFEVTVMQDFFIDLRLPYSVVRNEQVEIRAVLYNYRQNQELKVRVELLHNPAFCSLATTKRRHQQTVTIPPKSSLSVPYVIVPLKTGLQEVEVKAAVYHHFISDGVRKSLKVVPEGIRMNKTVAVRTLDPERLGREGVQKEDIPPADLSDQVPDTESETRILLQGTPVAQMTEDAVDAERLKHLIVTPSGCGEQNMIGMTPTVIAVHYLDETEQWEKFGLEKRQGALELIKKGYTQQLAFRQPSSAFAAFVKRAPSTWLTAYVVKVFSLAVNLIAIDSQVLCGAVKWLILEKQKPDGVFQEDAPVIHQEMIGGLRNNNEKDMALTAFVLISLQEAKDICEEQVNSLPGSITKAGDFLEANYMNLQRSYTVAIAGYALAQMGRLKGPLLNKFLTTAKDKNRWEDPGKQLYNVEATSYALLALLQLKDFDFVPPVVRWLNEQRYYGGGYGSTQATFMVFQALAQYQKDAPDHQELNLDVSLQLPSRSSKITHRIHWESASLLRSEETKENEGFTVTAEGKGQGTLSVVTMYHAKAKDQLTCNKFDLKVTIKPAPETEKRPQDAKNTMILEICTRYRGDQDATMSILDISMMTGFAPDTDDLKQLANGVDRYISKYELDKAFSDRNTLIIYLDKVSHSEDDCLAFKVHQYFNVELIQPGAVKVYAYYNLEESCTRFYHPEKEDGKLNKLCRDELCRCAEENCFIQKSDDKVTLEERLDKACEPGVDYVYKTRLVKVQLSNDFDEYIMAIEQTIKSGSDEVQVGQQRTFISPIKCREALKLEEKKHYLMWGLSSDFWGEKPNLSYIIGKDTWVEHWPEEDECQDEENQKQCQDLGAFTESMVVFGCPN

For `CC[C@H](C)[C@H](NC(C)=O)C(=O)N[C@H]1CSSC[C@@H](C(=O)N[C@H](C(=O)NCCOCCOCCOCC(=O)NCCOCCOCCOCC(=O)N[C@@H](CCCCNC(=O)CCNS(=O)(=O)c2ccc3ccccc3c2)C(N)=O)[C@@H](C)CC)NC(=O)[C@H](CCCNC(=N)N)NC(=O)[C@H](Cc2c[nH]cn2)NC(=O)[C@H](C)NC(=O)CN(C)C(=O)[C@H](Cc2c[nH]c3ccccc23)NC(=O)[C@H](CC(=O)O)NC(=O)[C@H](CCC(N)=O)NC(=O)[C@H](Cc2cn(C)c3ccccc23)NC(=O)[C@H](C(C)C)NC1=O` [Peptide 17-ABM], the half-life in series [1] (in vivo, iv, 10 mg) was 5 h. Moreover, the “fold improvement of half-life” value in series [1] (in vivo) stood at 5 fold. In addition, at C3b, binding was characterised by a dissociation constant (Kd) of 0.0047 µM; the Koff is listed as 5.6 10^−3, s^−1; the Kon is 1.2 10^6, M^−1 · s^−1.

For `CC[C@H](C)[C@H](NC(C)=O)C(=O)N[C@H]1CSSC[C@@H](C(=O)N[C@H](C(=O)NCCOCCOCCOCC(=O)NCCOCCOCCOCC(=O)N[C@@H](CCCCNC(=O)Cn2cc(C(=O)N[C@@H](CCCNC(=N)N)C(=O)N[C@@H](CC(C)C)C(=O)N[C@H](C(=O)N[C@@H](CCC(=O)O)C(=O)N[C@@H](CC(=O)O)C(=O)N[C@H](C(=O)N[C@H]3CSSC[C@@H](C(=O)N[C@@H](CC(C)C)C(=O)N[C@@H](Cc4c[nH]c5ccccc45)C(=O)N[C@@H](CCC(=O)O)C(=O)N[C@@H](CC(=O)O)C(=O)N[C@@H](CC(=O)O)C(N)=O)NC(=O)CNC(=O)[C@H](Cc4c[nH]c5ccccc45)NC(=O)[C@H](CCCNC(=N)N)NC(=O)[C@@H]4CCCN4C(=O)[C@H](CC(C)C)NC3=O)[C@@H](C)CC)[C@@H](C)CC)nn2)C(N)=O)[C@@H](C)CC)NC(=O)[C@H](CCCNC(=N)N)NC(=O)[C@H](Cc2c[nH]cn2)NC(=O)[C@H](C)NC(=O)CN(C)C(=O)[C@H](Cc2c[nH]c3ccccc23)NC(=O)[C@H](CC(=O)O)NC(=O)[C@H](CCC(N)=O)NC(=O)[C@H](Cc2cn(C)c3ccccc23)NC(=O)[C@H](C(C)C)NC1=O` [Peptide 17-ABP], the half-life in series [1] (in vivo, baboon, intravenous bolus 10 mg, read-out: plasma half-life (converted)) is 21 h. The “fold improvement of half-life” value in series [1] (relative to unconjugated peptide 17, baboon) is 21 fold. In addition, at C3b, the Kd stood at 0.032 µM; the Koff was 3.6 10^−3, s^−1; the Kon is reported as 0.1 10^6, M^−1 · s^−1.

Take “Ac-I[CVYQDWGAHRC]T-NH2 [Peptide 1, reference compound]”: the IC50 in series [2] was 2.4 µM. Further, the IC50-fold change in series [3] was found to be 1.

One may read the half-life as how long it takes for the measured level to halve. Usually Kd stands for the free concentration of one partner at which half of the binding sites on the other are occupied at equilibrium, for simple one-to-one binding. By IC50 is commonly meant the point on the concentration scale where inhibition reaches its midpoint.

(Values after patent US9371365B2, “Modified compstatin with peptide backbone and C-terminal modifications” (The Trustees of the University of Pennsylvania, priority 2009, dated 2016).)
